{"source": "patent US20120324604A1", "about": "“PESTICIDAL MIXTURES CONTAINING ISOXAZOLINE DERIVATIVES AND A FUNGICIDE” (priority 2010, published 2012)", "format_in_all_cases": "cell-based", "key": {"[1]": {"test_system": "Fusarium culmorum", "test": "Fusarium culmorum (Root Rot) growth inhibition, microtiter plate, photometric", "experimental": "Fusarium culmorum (Root Rot):\n(§1) Conidia of the fungus from cryogenic storage were directly mixed into nutrient broth (potato dextrose broth). After placing a (DMSO) solution of the test compounds into a microtiter plate (96-well format) the nutrient broth containing the fungal spores was added."}, "[2]": {"test_system": "Botrvtis cinerea", "test": "Botrvtis cinerea (Gray Mould) growth inhibition, microtiter plate, photometric", "conditions": "alone", "experimental": "Botrvtis cinerea (Gray Mould):\nas §1"}, "[3]": {"test_system": "Gaeumannomyces graminis", "test": "Gaeumannomyces graminis growth inhibition, microtiter plate, photometric", "experimental": "Mycelial fragments of the fungus from cryogenic storage were directly mixed into nutrient broth (potato dextrose broth). After placing a (DMSO) solution of the test compounds into a microliter plate (96-well format) the nutrient broth containing the fungal spores was added."}, "[4]": {"test_system": "Mycosphaerella arachidis (syn. Cercospora arachidicola)", "test": "Mycosphaerella arachidis (Brown Leaf Spot of Groundnut) growth inhibition, microtiter plate, photometric", "conditions": "alone", "experimental": "Mycosphaerella arachidis (syn. Cercospora arachidicola), Brown Leaf Spot of Groundnut (Peanut):\nas §1"}, "[5]": {"test_system": "Septoria tritici", "test": "Septoria tritici (Leaf Blotch) growth inhibition, microtiter plate, photometric", "conditions": "for AVERAGE DEAD IN %: alone; for AVERAGE DEAD IN % COMPOUND IV: COMPOUND IV alone", "experimental": "Septoria tritici (Leaf Blotch):\nas §1"}}, "note": "Several values for one entry are separate records, joined by “and”; a condition that tells them apart may be missing. Identical values can stand only once.", "data": [{"smiles": "COC(c1ccc(Cl)cc1Cl)C(C)NC(=O)c1cn(C)nc1C(F)F", "note": "(stereo not drawn) [COMPOUND IV]", "values": [{"measurement": "AVERAGE DEAD IN %", "setting": "[1]; alone, 1 PPM AI", "result": 20, "unit": "%"}, {"measurement": "AVERAGE DEAD IN %", "setting": "[1]; alone, 2 PPM AI", "result": 50, "unit": "%"}, {"measurement": "AVERAGE DEAD IN %", "setting": "[1]; single compound, 0.5 PPM AI, 48 hrs, 24° C.", "result": 0, "unit": "%"}, {"measurement": "AVERAGE DEAD IN %", "setting": "[1]; single compound, 1 PPM AI, 48 hrs, 24° C.", "result": 20, "unit": "%"}, {"measurement": "AVERAGE DEAD IN %", "setting": "[1]; single compound, 2 PPM AI, 48 hrs, 24° C.", "result": 50, "unit": "%"}, {"measurement": "AVERAGE DEAD IN %", "setting": "[2]; 0.03125 ppm AI", "result": 0, "unit": "%"}, {"measurement": "AVERAGE DEAD IN %", "setting": "[2]; 0.0625 ppm AI", "result": 20, "unit": "%"}, {"measurement": "AVERAGE DEAD IN %", "setting": "[2]; 0.125 ppm AI", "result": 20, "unit": "%"}, {"measurement": "AVERAGE DEAD IN %", "setting": "[2]; 0.25 ppm AI", "result": 50, "unit": "%"}, {"measurement": "AVERAGE DEAD IN %", "setting": "[2]; 0.5 ppm AI", "result": 70, "unit": "%"}, {"measurement": "AVERAGE DEAD IN %", "setting": "[2]; 1 ppm AI", "result": 90, "unit": "%"}, {"measurement": "AVERAGE DEAD IN %", "setting": "[3]; single compound at 0.25 ppm AI", "result": 0, "unit": "%"}, {"measurement": "AVERAGE DEAD IN %", "setting": "[3]; single compound at 0.5 ppm AI", "result": 0, "unit": "%"}, {"measurement": "AVERAGE DEAD IN %", "setting": "[3]; single compound at 1 ppm AI", "result": 0, "unit": "%"}, {"measurement": "AVERAGE DEAD IN %", "setting": "[4]; 0.0625 ppm AI", "result": 20, "unit": "%"}, {"measurement": "AVERAGE DEAD IN %", "setting": "[4]; 0.125 ppm AI", "result": 90, "unit": "%"}, {"measurement": "AVERAGE DEAD IN %", "setting": "[4]; 0.125 PPM AI", "result": 90, "unit": "%"}, {"measurement": "AVERAGE DEAD IN %", "setting": "[5]; 0.125 ppm AI", "result": 20, "unit": "%"}, {"measurement": "AVERAGE DEAD IN %", "setting": "[5]; 0.25 ppm AI", "result": 90, "unit": "%"}, {"measurement": "AVERAGE DEAD IN % COMPOUND IV", "setting": "[5]; 0.25 ppm AI", "result": "70% and 90%"}, {"measurement": "AVERAGE DEAD IN % COMPOUND IV", "setting": "[5]; 0.5 ppm AI", "result": "90% and 100%"}]}]}
